Method: The solution of propylene glycol monomethyl ether acetate (PGMEA), propylene glycol monomethyl ether (PGME), or ethyl lactate (EL) with each compound described above was prepared, while changing the concentration. After the preparation, each solution was stirred, and then the concentration in which each acid generator was completely dissolved was measured.

Row | Structure (SMILES) | Solubility in EL | Solubility in PGME | Solubility in PGMEA
1 | CC(C)(C)c1ccc(-[s+]2c3ccccc3c3ccccc32)cc1 [Compound (b1-21)] | 7 % by weight | >20 % by weight | 5 % by weight
2 | CCC(C)(C)c1ccc(-[s+]2c3ccccc3c3ccccc32)cc1 [Compound (b1-24)] | >20 % by weight | >20 % by weight | 15 % by weight
